Here are results for 20 molecules from patent US10640506B2, “Cyclobutyl substituted pyrrolopyridine and pyrrolopyrimidines derivatives as JAK inhibitors” (Incyte Corporation, priority 2010, dated 2020).

Counter-ions that a name gives are not always drawn. Like-named read-outs stand apart in the source and are kept apart here.

Assay [1] concerns the target human JAK1 (a.a. 837-1142) (Homo sapiens, UniProt P23458). The assay is described as follows: In vitro JAK kinase assay (HTRF, phosphorylation of biotinylated peptide), JAK1. Type of assay: biochemical. The settings on record: 1 mM ATP. In a few lines: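 Phosphorylation of a biotinylated peptide was run at room temperature for 1 hour using the N-terminally His-tagged JAK1 kinase domain (837-1142) from insect cells. After an EDTA stop, Eu-Py20 and SA-APC gave an HTRF read; values are binned potency ranges.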

Another assay deals with T1, JAK2 (a.a. 828-1132) (Homo sapiens, UniProt O60674).
T1 construct: JAK2 (a.a. 828-1132); His tag (N)
T1 sequence (O60674 828-1132): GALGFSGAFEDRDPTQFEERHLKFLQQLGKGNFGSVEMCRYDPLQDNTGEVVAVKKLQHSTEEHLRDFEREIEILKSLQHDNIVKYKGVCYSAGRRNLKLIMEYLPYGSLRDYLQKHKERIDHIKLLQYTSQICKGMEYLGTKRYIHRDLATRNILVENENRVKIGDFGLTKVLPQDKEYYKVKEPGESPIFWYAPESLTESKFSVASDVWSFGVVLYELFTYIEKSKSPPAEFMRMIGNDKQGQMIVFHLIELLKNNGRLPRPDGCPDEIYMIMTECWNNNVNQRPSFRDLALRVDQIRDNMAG
Kind of assay: In vitro JAK kinase assay (HTRF, phosphorylation of biotinylated peptide), JAK2. To be noted: 1 mM ATP. Format: biochemical. In a few lines:
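HTRF detection (Eu-Py20, SA-APC, 40 min) of biotinylated-peptide phosphorylation, following a 1 hour room-temperature reaction quenched with 45 mM EDTA. Enzymes: insect-cell-expressed N-terminal His-tagged JAK1 (837-1142) and JAK2 (828-1132) catalytic domains. Activities reported in ranged categories.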

human JAK1 (a.a. 837-1142), sequence (P23458 849-1154): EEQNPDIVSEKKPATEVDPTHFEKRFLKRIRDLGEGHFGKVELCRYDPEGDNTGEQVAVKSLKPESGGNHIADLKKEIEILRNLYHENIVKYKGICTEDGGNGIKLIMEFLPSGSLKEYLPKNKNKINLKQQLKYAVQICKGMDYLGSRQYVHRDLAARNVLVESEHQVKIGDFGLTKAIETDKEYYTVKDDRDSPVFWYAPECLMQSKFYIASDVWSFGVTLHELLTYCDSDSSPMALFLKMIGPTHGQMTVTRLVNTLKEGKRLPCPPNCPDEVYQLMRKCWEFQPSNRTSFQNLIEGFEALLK

For orientation: IC50 means the concentration at which inhibition is half-maximal. In the case of `N#CC[C@]1(n2cc(-c3ncnc4[nH]ccc34)cn2)C[C@@H](N2CCN(C(=O)c3ncc(C(F)(F)F)cc3F)CC2)C1` [Example 27, {cis-3-(4-{[3-fluoro-5-(trifluoromethyl)pyridin-2-yl]carbonyl}piperazin-1-yl)-1-[4-(7H-pyrrolo[2,3-d]pyrimidin-4-yl)-1H-pyrazol-1-yl]cyclobutyl}acetonitrile], the IC50 in assay [1] (Table A, read-out: JAK1 IC50) is < 0.01 µM; at JAK2 (a.a. 828-1132) (Table A, read-out: JAK2 IC50) it was 0.025 to 0.1 µM.

Regarding `N#CC[C@]1(n2cc(-c3ncnc4[nH]ccc34)cn2)C[C@@H](N2CCN(C(=O)c3ccc(Cl)cc3)CC2)C1` [Example 28, {cis-3-{4-[4-chlorobenzoyl]piperazin-1-yl}-1-[4-(7H-pyrrolo[2,3-d]pyrimidin-4-yl)-1H-pyrazol-1-yl]cyclobutyl}acetonitrile], the IC50 is < 0.01 µM in assay [1] (Table A, read-out: JAK1 IC50) and 0.01 to 0.025 µM on JAK2 (a.a. 828-1132) (Table A, read-out: JAK2 IC50).

Take `N#CC[C@]1(n2cc(-c3ncnc4[nH]ccc34)cn2)C[C@@H](N2CCN(C(=O)c3ccc(C(F)(F)F)cc3F)CC2)C1` [Example 29, {cis-3-{4-[2-fluoro-4-(trifluoromethyl)benzoyl]piperazin-1-yl}-1-[4-(7H-pyrrolo[2,3-d]pyrimidin-4-yl)-1H-pyrazol-1-yl]cyclobutyl}acetonitrile 2.3×(trifluoroacetate) Salt]: the IC50 in assay [1] (Table A, read-out: JAK1 IC50) was 0.01 to 0.025 µM; on JAK2 (a.a. 828-1132) (Table A, read-out: JAK2 IC50) it was 0.025 to 0.1 µM.

For `[2H][C@]1(N2CCN(C(=O)c3ccnc(C(F)(F)F)n3)CC2)C[C@@](CC#N)(n2cc(-c3ncnc4[nH]ccc34)cn2)C1` [Example 30, [cis-1-[4-(7H-pyrrolo[2,3-d]pyrimidin-4-yl)-1H-pyrazol-1-yl]-3-(4-{[2-(trifluoromethyl)pyrimidin-4-yl]carbonyl}piperazin-1-yl)cyclobutyl]acetonitrile-d1], the 50% inhibitory concentration (IC50) in assay [1] (Table C, read-out: JAK1 IC50) was < 0.01 µM; on JAK2 (a.a. 828-1132) (Table C, read-out: JAK2 IC50), > 0.1 µM.

Consider `[2H][C@]1(N2CCN(C(=O)c3ccnc(C(F)(F)F)n3)CC2)C[C@](CC#N)(n2cc(-c3ncnc4[nH]ccc34)cn2)C1` [Example 31, [trans-1-[4-(7H-pyrrolo[2,3-d]pyrimidin-4-yl)-1H-pyrazol-1-yl]-3-(4-{[2-(trifluoromethyl)pyrimidin-4-yl]carbonyl}piperazin-1-yl)cyclobutyl]acetonitrile-d1], for which the IC50 is < 0.01 µM in assay [1] (Table D, read-out: JAK1 IC50) and 0.025 to 0.1 µM on JAK2 (a.a. 828-1132) (Table D, read-out: JAK2 IC50).

`CN(C)C(=O)N1CCN([C@H]2C[C@](CC#N)(n3cc(-c4ncnc5[nH]ccc45)cn3)C2)CC1` [Example 32, 4-{trans-3-(cyanomethyl)-3-[4-(7H-pyrrolo[2,3-d]pyrimidin-4-yl)-1H-pyrazol-1-yl]cyclobutyl}-N,N-dimethylpiperazine-1-carboxamide]: the IC50 was < 0.01 µM in assay [1] (Table B, read-out: JAK1 IC50) and > 0.1 µM on JAK2 (a.a. 828-1132) (Table B, read-out: JAK2 IC50).

In the case of `CN(C)Cc1cc(F)cc(C(=O)N2CCN([C@H]3C[C@](CC#N)(n4cc(-c5ncnc6[nH]ccc56)cn4)C3)CC2)c1` [Example 33, {trans-3-(4-{3-[(dimethylamino)methyl]-5-fluorobenzoyl}piperazin-1-yl)-1-[4-(7H-pyrrolo[2,3-d]pyrimidin-4-yl)-1H-pyrazol-1-yl]cyclobutyl}acetonitrile], the IC50 is < 0.01 µM in assay [1] (Table B, read-out: JAK1 IC50) and < 0.01 µM on JAK2 (a.a. 828-1132) (Table B, read-out: JAK2 IC50).

In the case of `CN(C)Cc1cc(F)cc(CN2CCN([C@H]3C[C@](CC#N)(n4cc(-c5ncnc6[nH]ccc56)cn4)C3)CC2)c1` [Example 34, {trans-3-(4-{3-[(dimethylamino)methyl]-5-fluorobenzyl}piperazin-1-yl)-1-[4-(7H-pyrrolo[2,3-d]pyrimidin-4-yl)-1H-pyrazol-1-yl]cyclobutyl}acetonitrile], the IC50 in assay [1] (Table B, read-out: JAK1 IC50) is < 0.01 µM; on JAK2 (a.a. 828-1132) (Table B, read-out: JAK2 IC50) it was 0.01 to 0.025 µM.

As to `N#CC[C@]1(n2cc(-c3ncnc4[nH]ccc34)cn2)C[C@H](N2CCN(S(=O)(=O)C3CC3)CC2)C1` [Example 36, {trans-3-[4-(cyclopropylsulfonyl)piperazin-1-yl]-1-[4-(7H-pyrrolo[2,3-d]pyrimidin-4-yl)-1H-pyrazol-1-yl]cyclobutyl}acetonitrile], the IC50 is < 0.01 µM in assay [1] (Table B, read-out: JAK1 IC50) and < 0.01 µM on JAK2 (a.a. 828-1132) (Table B, read-out: JAK2 IC50).

`CN(C)S(=O)(=O)N1CCN([C@H]2C[C@](CC#N)(n3cc(-c4ncnc5[nH]ccc45)cn3)C2)CC1` [Example 37, 4-{trans-3-(cyanomethyl)-3-[4-(7H-pyrrolo[2,3-d]pyrimidin-4-yl)-1H-pyrazol-1-yl]cyclobutyl}-N,N-dimethylpiperazine-1-sulfonamide]: the IC50 is < 0.01 µM in assay [1] (Table B, read-out: JAK1 IC50) and < 0.01 µM on JAK2 (a.a. 828-1132) (Table B, read-out: JAK2 IC50).

Take `CCN(C)C(=O)N1CCN([C@H]2C[C@](CC#N)(n3cc(-c4ncnc5[nH]ccc45)cn3)C2)CC1` [Example 38, 4-{trans-3-(cyanomethyl)-3-[4-(7H-pyrrolo[2,3-d]pyrimidin-4-yl)-1H-pyrazol-1-yl]cyclobutyl}-N-ethyl-N-methylpiperazine-1-carboxamide]: the IC50 in assay [1] (Table B, read-out: JAK1 IC50) was < 0.01 µM; on JAK2 (a.a. 828-1132) (Table B, read-out: JAK2 IC50), 0.025 to 0.1 µM.

Turning to `CN(C)Cc1cc(C(=O)N2CCN([C@H]3C[C@](CC#N)(n4cc(-c5ncnc6[nH]ccc56)cn4)C3)CC2)cc(C(F)(F)F)c1` [Example 39, {trans-3-{4-[3-[(dimethylamino)methyl]-5-(trifluoromethyl)benzoyl]piperazin-1-yl}-1-[4-(7H-pyrrolo[2,3-d]pyrimidin-4-yl)-1H-pyrazol-1-yl]cyclobutyl}acetonitrile], the IC50 in assay [1] (Table B, read-out: JAK1 IC50) is < 0.01 µM; on JAK2 (a.a. 828-1132) (Table B, read-out: JAK2 IC50), 0.025 to 0.1 µM.

As for `CN(C)Cc1cc(C#N)cc(C(=O)N2CCN([C@H]3C[C@@](CC#N)(n4cc(-c5ncnc6[nH]ccc56)cn4)C3)CC2)c1` [Example 42, 3-[(4-{cis-3-(cyanomethyl)-3-[4-(7H-pyrrolo[2,3-d]pyrimidin-4-yl)-1H-pyrazol-1-yl]cyclobutyl}piperazin-1-yl)carbonyl]-5-[(dimethylamino)methyl]benzonitrile], the IC50 in assay [1] (Table F) was < 0.01 µM; on JAK2 (a.a. 828-1132) (Table F), > 0.1 µM.

Regarding `CN(C)Cc1cc(C#N)cc(CN2CCN([C@H]3C[C@@](CC#N)(n4cc(-c5ncnc6[nH]ccc56)cn4)C3)CC2)c1` [Example 44, 3-[(4-{cis-3-(cyanomethyl)-3-[4-(7H-pyrrolo[2,3-d]pyrimidin-4-yl)-1H-pyrazol-1-yl]cyclobutyl}piperazin-1-yl)methyl]-5-[(dimethylamino)methyl]benzonitrile], the IC50 in assay [1] (Table F) was 0.01 to 0.025 µM; on JAK2 (a.a. 828-1132) (Table F) it was > 0.1 µM.

As for `CN(C)Cc1cc(CN2CCN([C@H]3C[C@](CC#N)(n4cc(-c5ncnc6[nH]ccc56)cn4)C3)CC2)cc(C(F)(F)F)c1` [Example 45, {trans-3-{4-[3-[(dimethylamino)methyl]-5-(trifluoromethyl)benzyl]piperazin-1-yl}-1-[4-(7H-pyrrolo[2,3-d]pyrimidin-4-yl)-1H-pyrazol-1-yl]cyclobutyl}acetonitrile], the IC50 (in assay [1] (Table F); against JAK2 (a.a. 828-1132) (Table F)) was > 0.1 µM each time.

For the molecule `CN(C)Cc1cc(CN2CCN([C@H]3C[C@@](CC#N)(n4cc(-c5ncnc6[nH]ccc56)cn4)C3)CC2)cc(C(F)(F)F)c1` [Example 46, {cis-3-{4-[3-[(dimethylamino)methyl]-5-(trifluoromethyl)benzyl]piperazin-1-yl}-1-[4-(7H-pyrrolo[2,3-d]pyrimidin-4-yl)-1H-pyrazol-1-yl]cyclobutyl}acetonitrile], the figures for the IC50 (in assay [1] (Table F); against JAK2 (a.a. 828-1132) (Table F)) were 0.025 to 0.1 µM and > 0.1 µM, respectively.

Regarding `CCNCc1cc(C(=O)N2CCN([C@H]3C[C@](CC#N)(n4cc(-c5ncnc6[nH]ccc56)cn4)C3)CC2)nc(C(F)(F)F)n1` [Example 47, {trans-3-(4-{[6-[(Ethylamino)methyl]-2-(trifluoromethyl)pyrimidin-4-yl]carbonyl}piperazin-1-yl)-1-[4-(7H-pyrrolo[2,3-d]pyrimidin-4-yl)-1H-pyrazol-1-yl]cyclobutyl}acetonitrile], the values for the IC50 (in assay [1] (Table F); on JAK2 (a.a. 828-1132) (Table F)) were < 0.01 µM and 0.025 to 0.1 µM, respectively.

Turning to `N#CC[C@]1(n2cc(-c3ncnc4[nH]ccc34)cn2)C[C@H](N2CCN(C(=O)c3cc(C(=O)O)nc(C(F)(F)F)n3)CC2)C1` [Example 48, 6-[(4-{trans-3-(cyanomethyl)-3-[4-(7H-pyrrolo[2,3-d]pyrimidin-4-yl)-1H-pyrazol-1-yl]cyclobutyl}piperazin-1-yl)carbonyl]-2-(trifluoromethyl)pyrimidine-4-carboxylic acid], the IC50 in assay [1] (Table F) is 0.01 to 0.025 µM; against JAK2 (a.a. 828-1132) (Table F), > 0.1 µM.

Turning to `N#CC[C@]1(n2cc(-c3ncnc4[nH]ccc34)cn2)C[C@H](N2CCN(C(=O)c3cc(CN4CCC4)nc(C(F)(F)F)n3)CC2)C1` [Example 49, {trans-3-(4-{[6-(azetidin-1-ylmethyl)-2-(trifluoromethyl)pyrimidin-4-yl]carbonyl}piperazin-1-yl)-1-[4-(7H-pyrrolo[2,3-d]pyrimidin-4-yl)-1H-pyrazol-1-yl]cyclobutyl}acetonitrile], the IC50 in assay [1] (Table F) was < 0.01 µM; at JAK2 (a.a. 828-1132) (Table F), 0.025 to 0.1 µM.

In the case of `CNCc1cc(C(=O)N2CCN([C@H]3C[C@](CC#N)(n4cc(-c5ncnc6[nH]ccc56)cn4)C3)CC2)nc(C(F)(F)F)n1` [Example 50, {trans-3-(4-{[6-[(methylamino)methyl]-2-(trifluoromethyl)pyrimidin-4-yl]carbonyl}piperazin-1-yl)-1-[4-(7H-pyrrolo[2,3-d]pyrimidin-4-yl)-1H-pyrazol-1-yl]cyclobutyl}acetonitrile], the IC50 in assay [1] (Table F) was < 0.01 µM; against JAK2 (a.a. 828-1132) (Table F), 0.025 to 0.1 µM.
